Experimental data as given in patent US20170252278A1, “INHIBITION OF MATURATION OF DENTAL BIOFILM AND CARIOGENIC PROPERTIES” (KONINKLIJKE PHILIPS N.V., priority 2014, published 2017).

Columns and labels:
Format in all cases: cell-based
[1] = tested on: in vitro oral plaque biofilms; experiment: Lactic acid production assay of in vitro oral plaque biofilms; settings: for total lactic acid production per biofilm (FIG. 2): 100 μM, biofilms grown 48 h, 3 h in BPW with 0.2% sucrose; for reduction of lactate production / lactic acid production after 96 h of growth: 10 μM
Method: All compounds tested of Table 1 were obtained from Sigma Aldrich. All compounds of Table 2, except 3-oxo-N(2oxocyclohexyl)dodecanamide, were kindly provided by M. Meijler, University of the Negev, Israel. The compounds were dissolved in DMSO and stored at −20 C. The compounds were continuously present at the indicated concentrations during biofilm growth, but not during further phenotypic analysis, i.e. lactate production.
To estimate the cariogenic phenotype, lactic acid production of the in vitro oral plaque biofilms was determined prior to harvesting (Exerkate et al 2010). In short, the biofilms on coverslips were placed in a 24-well plate containing 1.5 ml of BPW with 0.2% sucrose. Lactic acid formation was allowed for 3 hr at 37° C. under anaerobic conditions. The total amount of lactic acid produced in this period was analyzed using a colorimetric assay described previously (van Loveren et al. (2000)) and expressed as mM lactic acid, and as μM lactic acid per 1×10^6 CFU.
Biofilms were grown for 48 h in buffered McBain medium supplemented with 0.2% sucrose in the presence of 100 μM of one of the compounds. Medium was refreshed twice every day. […]

[2] = tested on: in vitro oral plaque biofilms; experiment: In vitro oral plaque biofilm formation in the Amsterdam Active Attachment Model, CFU determination; settings: for effect on in vitro oral plaque biofilm formation: 10 μM, difference less than one log, not considered biologically relevant
Method: Stimulated saliva, used as inoculum, was collected on ice from ten donors. Saliva was donated 24 h after last brushing. The saliva was diluted 2-fold with 60% sterile glycerol, aliquoted and stored at −80° C. Before use, a pooled sample was prepared by mixing 200 μl of thawed saliva of each donor and vortexing for 30 seconds. In vitro oral plaque biofilms were inoculated 1:50 with pooled saliva.
In vitro oral plaque biofilms were grown in the Amsterdam Active Attachment Model (AAA-model, Exterkate et al. (2010)), assembled with glass coverslips (diameter 12 mm; Menzel, Braunschweig, Germany). The model was inoculated for 8 h with pooled saliva in buffered semi-defined McBain medium (2.5 g/l mucin (Sigma, St Louis, Mo.), 2.0 g/l Bacto peptone (Difco, Detroit, Mich.), 2.0 g/l Trypticase peptone (BBL, Cockeysville, Md.), 1.0 g/l yeast extract (BD Diagnostic Systems, Sparks, Md.), 0.35 g/l NaCl, 0.2 g/l KCl, 0.2 g/l CaCl2, 1 mg/l hemin (Sigma, St. Louis, Mo., USA), and 2 mg/l vitamin K1 (McBain et al. (2005)), with 50 mmol/1 PIPES at pH 7.0), with 0.2% sucrose.
In vitro oral plaque biofilms were grown in the AAA-model for 48-96 h in the presence of the compounds tested. The model was inoculated with saliva and incubated anaerobically at 37° C. for 8 hours to allow microbes to attach to the glass coverslips. After 8 hours of attachment, the inoculation medium was refreshed and in vitro oral plaque biofilms were grown for 16 hours. This refreshment routine was repeated daily until the day of harvesting.
In vitro oral plaque biofilms were harvested by transferring the glass coverslips into 2 ml phosphate buffered saline (PBS). The biofilms were dispersed using a Vibracell VCX130 sonicator with a maximum of 130 Watts and 20 kHz (Sonics & Materials, Newtown, USA). Bio films were sonicated on ice for 1 minute with a pulse rate of 50% and pulses of 1 second. Vibration amplitude was set to 40%.
To estimate the amount of in vitro oral plaque biofilm formation, total anaerobic colony forming units were determined. Briefly, serial dilutions of the dispersed bio films were made and plated on tryptic soy agar blood plates. Plates were subsequently incubated anaerobically for 96 h at 37° C. and colony forming units were determined by counting the number of colonies for each dilution.

[3] = tested on: in vitro oral plaque biofilms; experiment: Microbial composition of biofilms by 16S rDNA sequencing; settings: for shift in composition (Streptococcus down, Veillonella and Actinobacillus up) versus control: 10 μM; for Actinobacillus, share of biofilm composition / Actinomyces, share of biofilm composition / Campylobacter, share of biofilm composition / Fusobacterium, share of biofilm composition / Granulicatella, share of biofilm composition / Haemophilus, share of biofilm composition / Megasphaera, share of biofilm composition / Neisseria, share of biofilm composition / Other taxa, share of biofilm composition / Porphyromonas, share of biofilm composition / Prevotella, share of biofilm composition / Rothia, share of biofilm composition / Solobacterium, share of biofilm composition / Streptococcus, share of biofilm composition / Unclass. Pasteurellaceae, share of biofilm composition / Veillonella, share of biofilm composition: 3-Oxo-N 100 μM, furanones 10 μM
Method: DNA was isolated using phenol bead-beating followed by Agowa isolation, following the manufacturers instructions (LGC Genomics, Mag mini kit). Briefly, cells were mechanically disrupted four times at 1200 rpm for two minutes in addition of Tris-saturated Phenol, pH8, 0.1 mm zirconium beads and Mag lysis buffer. The DNA-containing phase was mixed with binding buffer and magnetic beads. DNA concentration was estimated by determining the absorbance at 260 nm using the nanodrop (Isogen, ND-1000).
PCR was performed in a final volume of 25 μl containing 1 μl of each primer ([…]), 1 μl dNTP (10 mM), 2.5 μl 10× DreamTaq Buffer including MgCl2 (Thermo Scientific), 0.2 μl DreamTaq DNA Polymerase (5 u/μ1, Thermo Scientific) and 50 ng of DNA. Initial denaturation was performed at 94° C. for 4 min, followed by 35 cycles of denaturation at 94° C. for 30 s, 54° C. annealing for 1 min, 72° C. for 1 min primer extension and a final extension at 72° C. for 5 min. Product formation was confirmed by electrophoresis of 5 μl on a 1% (w/v) agarose gel (Sphearo Q, Leiden, The Netherlands) stained with ethidium bromide.
These samples were analyzed by 16S rDNA Illumina sequencing at TNO Zeist (Netherlands).
Table 3. Microbial composition of biofilms grown for 48 (Table 3A) or 96 h (Table 3B) in the presence of different QS inhibitors. Composition was determined by 16S rDNA sequencing. The composition of the original inoculum used for all biofilms was also determined. “Unclass.” means: unclassified.

Structure (SMILES)	total lactic acid production per biofilm (FIG. 2) [1]	shift in composition (Streptococcus down, Veillonella and Actinobacillus up) versus control ([3]; 48 h)	Actinobacillus, share of biofilm composition ([3]; 48 h) [%]	Actinomyces, share of biofilm composition ([3]; 48 h) [%]	Campylobacter, share of biofilm composition ([3]; 48 h) [%]	Fusobacterium, share of biofilm composition ([3]; 48 h) [%]	Granulicatella, share of biofilm composition ([3]; 48 h) [%]	Haemophilus, share of biofilm composition ([3]; 48 h) [%]	Megasphaera, share of biofilm composition ([3]; 48 h) [%]	Neisseria, share of biofilm composition ([3]; 48 h) [%]	Other taxa, share of biofilm composition ([3]; 48 h) [%]	Porphyromonas, share of biofilm composition ([3]; 48 h) [%]	Prevotella, share of biofilm composition ([3]; 48 h) [%]	Rothia, share of biofilm composition ([3]; 48 h) [%]	Solobacterium, share of biofilm composition ([3]; 48 h) [%]	Streptococcus, share of biofilm composition ([3]; 48 h) [%]	Unclass. Pasteurellaceae, share of biofilm composition ([3]; 48 h) [%]	Veillonella, share of biofilm composition ([3]; 48 h) [%]	Actinobacillus, share of biofilm composition ([3]; 96 h) [%]	Actinomyces, share of biofilm composition ([3]; 96 h) [%]	other results
CCCCCCCCCCCC(=O)N[C@H]1CCOC1=O [C12-HSL, N-[(3S)-tetrahydro-2-oxo-3-furanyl]-dodecanamide]	no effect	–	–	–	–	–	–	–	–	–	–	–	–	–	–	–	–	–	–	–	–
CCCCCCCCCCCCCC(=O)N[C@H]1CCOC1=O [HSL-C14]	reduced lactic acid production	–	–	–	–	–	–	–	–	–	–	–	–	–	–	–	–	–	–	–	biofilm production (visible amount of biofilm) ([2]; Example 2, 100 μM, 48 h): toxic to the formation of biofilm
O=C1OCC(Br)=C1Br [3,4-Di-bromo, 3,4-Dibromo-2(5H)-furanone]	–	absent or even inversed	3.7	0.0	0.2	0.0	0.1	0.0	0.0	0.0	0.1	0.0	0.0	0.0	0.1	60.8	0.2	34.8	3.4	0.1	Campylobacter, share of biofilm composition ([3]; 96 h): 1.6%; Fusobacterium, share of biofilm composition ([3]; 96 h): 0.0%; Granulicatella, share of biofilm composition ([3]; 96 h): 0.2%; Haemophilus, share of biofilm composition ([3]; 96 h): 0.0%; Megasphaera, share of biofilm composition ([3]; 96 h): 0.0%; Neisseria, share of biofilm composition ([3]; 96 h): 0.0%; Other taxa, share of biofilm composition ([3]; 96 h): 0.7%; Porphyromonas, share of biofilm composition ([3]; 96 h): 0.0%; Prevotella, share of biofilm composition ([3]; 96 h): 2.3%; Rothia, share of biofilm composition ([3]; 96 h): 0.0%; Solobacterium, share of biofilm composition ([3]; 96 h): 0.7%; Streptococcus, share of biofilm composition ([3]; 96 h): 38.0%; Unclass. Pasteurellaceae, share of biofilm composition ([3]; 96 h): 0.0%; Veillonella, share of biofilm composition ([3]; 96 h): 52.9%; reduction of lactate production [1]: not observed; lactic acid production after 96 h of growth [1]: up-regulate; effect on in vitro oral plaque biofilm formation [2]: slightly effect
O=C1C=C(Br)/C(=C/Br)O1 [Furanone C30, (Z-)-4-Bromo-5-(bromomethylene)-2(5H)-furanone]	–	absent or even inversed	4.9	0.1	0.0	0.0	0.0	0.0	0.0	0.0	0.0	0.0	0.0	0.0	0.1	66.2	0.0	28.6	4.5	0.3	Campylobacter, share of biofilm composition ([3]; 96 h): 0.0%; Fusobacterium, share of biofilm composition ([3]; 96 h): 0.0%; Granulicatella, share of biofilm composition ([3]; 96 h): 0.3%; Haemophilus, share of biofilm composition ([3]; 96 h): 0.0%; Megasphaera, share of biofilm composition ([3]; 96 h): 0.0%; Neisseria, share of biofilm composition ([3]; 96 h): 0.0%; Other taxa, share of biofilm composition ([3]; 96 h): 0.1%; Porphyromonas, share of biofilm composition ([3]; 96 h): 0.0%; Prevotella, share of biofilm composition ([3]; 96 h): 0.0%; Rothia, share of biofilm composition ([3]; 96 h): 0.0%; Solobacterium, share of biofilm composition ([3]; 96 h): 0.8%; Streptococcus, share of biofilm composition ([3]; 96 h): 34.4%; Unclass. Pasteurellaceae, share of biofilm composition ([3]; 96 h): 0.0%; Veillonella, share of biofilm composition ([3]; 96 h): 59.6%; reduction of lactate production [1]: not observed; lactic acid production after 96 h of growth [1]: up-regulate; effect on in vitro oral plaque biofilm formation [2]: slightly effect
